Source: publication PMC12693182, “Synthesis and QSAR Studies of Claramine Derivatives, a New Class of Broad-Spectrum Antimicrobial Agents” (Molecules, 2025)
Converted amounts (≈) assume the structure as drawn.

Test system: Chinese hamster Ovary cells (CHO-K1)
Assay: Cytotoxicity assay (WST-1 / Neutral Red)
Format: cell-based
Conditions: Cricetulus griseus, 24 h, 24-h incubation
Protocol: The cytotoxic activities of compounds were assessed on Chinese hamster Ovary cells (CHO-K1) provided from ATCC-LGC Standards Sarl (Molsheim, France). Cells were maintained in Mc Coy’s 5A (CHO) medium supplemented with 10% bovine calf serum, 2 mM glutamine, and 100 U mL^−1/10 µg mL^−1 penicillin/streptomycin mixtures. For the cytotoxicity experiments, they were seeded in 96-well plates and incubated at 37 °C in humidified atmosphere containing 5% CO2 overnight, then concentrations of compounds were incorporated in triplicate cultures. After a 24-h incubation period at 37 °C, cells were submitted to three successive washes in phosphate buffer saline (PBS) and cell viability was evaluated by two different vital dyes: • i. A first set of cell cultures was incubated in PBS containing 10% WST-1 for 30 min at 37 °C, 5% CO2. Cell viability was evaluated by the assessment of WST-1 absorbance at 450 nm in a microplate spectrophotometer. • ii. A second set of cell cultures was placed into Neutral Red medium (50 μg mL^−1 Neutral Red in complete medium) and incubated for 3 h at 37 °C, 5% CO2. Then the Neutral Red medium was removed and the distaining solution (50% ethanol, 1% acetic acid, 49% distilled water; 50 µL per well) was added into the wells. The plates were shaken for 15–20 min at room temperature in the dark. Cell viability was evaluated by the assessment of absorbance at 540 nm in a microplate spectrophotometer.
Results were expressed as percentages of cell viability about the control (culture medium-only), which corresponded to 100% cell viability. Dose-response curves were calculated by non-linear regression analysis with TableCurve 2D software (V 5.0.1) (Systat Software Inc., San Jose, CA, USA). The Inhibitory Concentration 50% (IC50) was defined as the concentration of compounds that induced a 50% decrease of viable cells.

| Compound | IC50 |
| --- | --- |
| COC(=O)CCC(C)C1CCC2C3CCC4CC(NCCCNCCCCNCCCN)CCC4(C)C3CC(O)C12C (stereo not drawn) [Claramine A05] | 8 µg/mL (≈ 13.5 µM) |

Test system: S. aureus 340 and P. aeruginosa 1051575
Assay: MIC against S. aureus and P. aeruginosa strains (Figure 6)
Format: cell-based
Conditions: range over both strains, C-24 methyl ester series
Protocol: Antimicrobial activity of the compounds was studied by determination of minimal inhibitory concentrations (MIC) according to the NCCLS guidelines M7-A2 using the microbroth dilution methods. The bacteria strains were grown on trypticase soy agar (Becton Dickinson) at 37 °C for 24 h. Inocula were prepared in TCE (tryptone 0.1%, […], wt/vol) by ajusting the turbidity at 623 nm to obtain 1–3 10^5 CFU/mL.
Antimicrobial activities of the compounds were determined by using a broth microdilution method performed in sterile 96-well microplates. All compounds were solubilized in water at a concentration of 10 mM and were transferred to each microplate well in order to obtain a two-fold serial dilution in 100 µL of broth and 100 µL of inoculum containing 2–6 10^5 CFU of each bacterium were added to each well. Some wells were reserved for positive controls and inoculum viability.

| Compound | MIC |
| --- | --- |
| COC(=O)CCC(C)C1CCC2C3CCC4CC(NCCCNCCCCNCCCN)CCC4(C)C3CC(O)C12C (stereo not drawn) [Claramine A05] | 2 to 4 µg/mL (≈ 3.38 to 6.77 µM) |
| COC(=O)CCC(C)C1CCC2C3CCC4CC(NCCCCN)CCC4(C)C3CC(O)C12C (stereo not drawn) [Claramine A11] | 6 to 50 µg/mL (≈ 12.6 to 105 µM) |
| COC(=O)CCC(C)C1CCC2C3CCC4CC(NCCCCCN)CCC4(C)C3CC(O)C12C (stereo not drawn) [Claramine A12] | 6 to 50 µg/mL (≈ 12.2 to 102 µM) |
| COC(=O)CCC(C)C1CCC2C3CCC4CC(NCCCN(C)CCCN)CCC4(C)C3CC(O)C12C (stereo not drawn) [Claramine A16] | 7 to 14 µg/mL (≈ 13.1 to 26.2 µM) |
| COC(=O)CCC(C)C1CCC2C3CCC4CC(NCCCN(CCCN)CCCN)CCC4(C)C3CC(O)C12C (stereo not drawn) [Claramine A17] | 7 to 14 µg/mL (≈ 12.1 to 24.3 µM) |
